According to US8158681B2, “Nutraceutical and pharmaceutical compositions and use thereof for the treatment, co-treatment or prevention of inflammatory disorders” (DSM IP Assets B.V., priority 2006, dated 2012):

Key:
Assay type in all cases: cell-based, murine
[1] = system: nitric oxide (NO) production, RAW264.7; assay: Inhibition of nitric oxide production in LPS-stimulated RAW264.7 macrophages (Griess reaction); settings: single compounds, RAW264.7, 1 μg/ml LPS, 24 hours
Method: (§1) Pure compounds were assayed in vitro in cellular systems. The inhibition of the synthesis of pro-inflammatory prostaglandins (PG) and of nitric oxide by the extracts or compounds was measured. PGE2 plays a critical role in the inflammation process, while nitric oxide (NO) is a hallmark of inflammation in various chronic inflammatory diseases including various forms of arthritis, gastrointestinal diseases and metabolic syndrome X.
(§2) The effects of extracts or compounds on the inflammatory response were tested in cellular assays using a murine macrophage indicator cell line, RAW264.7. The cells were purchased from ATCC (Manassas, Va., USA) and cultured in DMEM containing streptomycin/penicillin, non-essential amino acids and 10% fetal calf serum (FCS). In order to test a large range of concentration of compounds, cells (˜50′000/well) were seeded into flat-bottomed microtiter plates and cultured for one day. Cells were then starved in complete medium containing 0.25% FCS (D-025). After overnight culture, medium was removed and replaced by 100 μL of D-025 containing the test compounds at twice the final concentration. Subsequently, 100 μL of D-025 containing 2 μg/ml LPS was added (i.e. final LPS concentration of 1 μg/ml) and the cells cultured for 24 hours.
(§3) Compounds were usually tested in a concentration range from 0.2 to 50 μM in two-fold dilution steps. Extracts were tested in a range from 0.2-50 mg/L. All treatments were done in duplicates and several experimental series were done for each treatment. Concentrations of nitrite, which was rapidly formed from nitric oxide released by cells, were determined by the Griess reaction using sodium nitrite as standard. Briefly, 50 μl of supernatant was mixed with Griess reagent 1 (25 μL) and Griess reagent 2 (25 μL), centrifuged and the optical density at 540 nm determined. PGE2 secreted into the cell culture medium was determined by EIA obtained from Cayman Chemicals (Ann Harbor, Wis., USA) and used according to the manufacturer's instructions. All determinations were done in duplicates and at various dilutions of the culture supernatant. IC50 values were calculated using a […] least-square fitting equation [y=A+((B−A)/(1+((C−x)^D))] for best-fit curves (Excel fit software program).

[2] = system: PGE2 production, RAW264.7; assay: Inhibition of PGE2 production in LPS-stimulated RAW264.7 macrophages (EIA); settings: single compounds, RAW264.7, 1 μg/ml LPS, 24 hours
Method: as §1, §2, §3

[3] = system: matrix metalloproteinase 9 (MMP-9) mRNA; assay: Expression of inflammatory genes in stimulated RAW 264.7 cells, quantitative RT-PCR: MMP-9; settings: RAW 264.7, 4 hours
Method: (§4) The effect of the compounds has also been evaluated on the level of the expression of genes that are involved in the inflammatory response. These comprise genes of the prostaglandin synthesis pathway, cytokines and chemokines or inducible nitric oxide synthase (iNOS). RAW 264.7 cells were stimulated in the presence of different concentrations of substances. After 4 hours, RNA was extracted and the expression of genes determined by quantitative RT-PCR as described (Richard, N., Porath, D., Radspieler, A. and Schwager, J. Effects of resveratrol, piceatannol, tri-acetoxystilbene, and genistein on the inflammatory response of human peripheral blood leukocytes. Mol Nutr Food Res 2005. 49: 431-442). […] Collectively, the results reveal significant effects of the compounds on the expression of distinct genes involved in the inflammatory response.

[4] = system: interleukin-10 (IL-10) mRNA; assay: Expression of inflammatory genes in stimulated RAW 264.7 cells, quantitative RT-PCR: IL-10; settings: RAW 264.7, 4 hours
Method: as §4

[5] = system: IL-1 alpha mRNA; assay: Expression of inflammatory genes in stimulated RAW 264.7 cells, quantitative RT-PCR: IL-1 alpha; settings: 25 μM/L Amorfrutin A; RAW 264.7, 4 hours
Method: as §4

[6] = system: inducible nitric oxide synthase (iNOS) mRNA; assay: Expression of inflammatory genes in stimulated RAW 264.7 cells, quantitative RT-PCR: iNOS; settings: RAW 264.7, 4 hours
Method: as §4

Row | Structure (SMILES) | IC50 [1] [µM] | IC50 [2] [µM] | IC50 ([1]; Mus musculus) [µM] | IC50 ([2]; Mus musculus) [µM] | also measured
1 | CCCCCc1cc(OC)c(C/C=C(\C)CCC=C(C)C)c(O)c1C(=O)O [Cannabigerolic acid monomethyl ether] | 31.3 ± 2.5 | 17.9 ± 11.6 | – | – | –
2 | COc1cc(CCc2ccccc2)c(C(=O)O)c(O)c1CC=C(C)C [Amorfrutin A (III), Amorfrutin A] | 7.1 ± 0.1 | 74.1 ± 12.1 | – | – | % expression of MMP-9 mRNA relative to cells stimulated with LPS only (=100%) ([3]; 25 μM/L Amorfrutin A): 69%; Effect on MMP-9 gene expression (in words) ([3]; RT-PCR): significantly reduced; % expression of IL-10 mRNA relative to cells stimulated with LPS only (=100%) ([4]; 25 μM/L Amorfrutin A): 22%; Effect on IL-10 gene expression (in words) ([4]; RT-PCR): significantly reduced; % expression of IL-1 alpha mRNA relative to cells stimulated with LPS only (=100%) [5]: 94%; % expression of iNOS mRNA relative to cells stimulated with LPS only (=100%) ([6]; 25 μM/L Amorfrutin A): 52%; Effect on iNOS gene expression (in words) ([6]; RT-PCR): significantly reduced
3 | C=C(C)C(O)Cc1c(OC)cc(CCc2ccccc2)c(C(=O)O)c1O (stereo not shown) [2-hydroxy-4-methoxy-3-(2-hydroxy-3-methyl-3-butenyl)-6-(2-phenylethyl)-benzoic acid] | – | – | 14.6 ± 0.3 | 40.7 ± 11.8 | –
4 | CCCCCc1cc(OC)c(CC=C(C)C)c(O)c1C(=O)O [2-hydroxy-4-methoxy-3-(3-methyl-2-butenyl)-6-pentyl-benzoic acid] | – | – | 10.9 ± 1.2 | > 50 | –
5 | COc1cc(CCc2ccccc2)c(C(=O)O)c(O)c1C/C=C(\C)CCC=C(C)C [Amorfrutin B (II), Amorfrutin B] | 22.8 ± 4.1 | > 100 | – | – | –
6 | C=C(C)C(O)Cc1c(OC)cc(CCCCC)c(C(=O)O)c1O (stereo not shown) [2-hydroxy-4-methoxy-3-(2-hydroxy-3-methyl-3-butenyl)-6-pentyl-benzoic acid] | – | – | 22.1 ± 1.6 | 18.9 ± 1.6 | –
